Assay results published in US10004770B2, “Production and use of bacterial histamine” (BioGaia AB, priority 2011, dated 2018).
Entries after “also recorded” stand apart in the source; their conditions may differ.

Assays:
[1] = tested on: TNF production from TLR2-activated THP-1 cells; experiment: TNF inhibition bioassay and TNF ELISA; assay type: cell-based, human; conditions: for TNF production (TNF inhibition): THP-1 cells stimulated with 100 ng/mL Pam3Cys-SKKKK, 3.5 h, samples 5% v/v, histamine 10^-5 M, 6475 grown in glucose media (LDMIIIG); for block of TNF-inhibition by histamine: antagonist added before histamine 10^-5 M, ranitidine, cimetidine 10^-4-10^-6 M, indomethacin 10^-5-10^-6 M
Method: In vitro experiments were performed with THP-1 cells (human monocytoid cell line, ATCC, Manassas, Va.) maintained in RPMI (ATCC) and heat-inactivated fetal bovine serum (Invitrogen, Carlsbad, Calif.) at 37° C., 5% CO2. MEK1/2, phospho-MEK1/2, ERK1/2, and phospho-ERK1/2 antibodies and MEK inhibitor U0126 were received from Cell Signaling Technology (Danvers, Mass.), and the β-Actin antibody was received from Abcam (Cambridge, Mass.). All other reagents were received from Sigma (St. Louis, Mo.) unless otherwise stated.
Bacterial supernatants (10 mL) from a 24 h LDMIII culture were filter-sterilized using PVDF membrane filters (0.22 μm pore size, Millipore) and size fractionated as described above. One milliliter of the <3 kDa filtrate was speed vacuum dried and resuspended in RPMI media. These processed supernatant samples are termed conditioned media. All supernatants were normalized by volume to an OD600=1.0. Lyophilized fractions from the HILIC-HPLC separation were resuspended in 400 μL 10 mg/mL ammonium bicarbonate, speed vacuum dried, and resuspended in 400 μL RPMI media. Conditioned media and cell pellet wash fractions were tested for their ability to modulate TNF production in monocytoid cells. In brief, THP-1 cells (approximately 5×10^4 cells) were stimulated to produce TNF by the addition of 100 ng/mL Pam3Cys-SKKKK×3 HCl (EMC Microcollections, Tuebingen, Germany) as previously described. Inhibitors—H2 receptor antagonists, ranitidine and cimetidine (10^−4-10^−6 M), […], indomethacin (10^−5-10^−6 M), MEK inhibitor, U0126 (10 μM), and PKA inhibitor, H89 (N-[2-(p-bromocinnamylamino)ethyl]-5-isoquinolinesulfonamide dihydrochloride) (10^−5 M)—were added to the THP-1 cells followed by L. reuteri conditioned media or cell pellet wash fractions (5% v/v), histamine (10^−5 M), or dibutyryl cAMP (10^−3-10^−7 M). Plates were incubated at 37° C. and 5% CO2 for 3.5 h. THP-1 cells were pelleted (3000× g, 5 min, 4° C.), and quantitative ELISAs were used to determine TNF quantities in THP-1 cell supernatants according to the manufacturer's instructions (R&D Systems, Minneapolis, Minn.).

[2] = tested on: LPS-induced liver injury; conditions: mouse; cited from earlier work
[3] = tested on: ERK1/2; experiment: ERK1/2 activation by Western blot; assay type: cell-based, human; conditions: activated THP-1 cells, compared to media control
Method: (§1) THP-1 cells were lysed in ice-cold lysis buffer consisting of 50 mM Tris, pH 7.4, 250 mM NaCl, 5 mM EDTA, 50 mM NaF, 1 mM Na3VO4, 1% v/v Nonidet P40, 0.2% v/v NaN3, and protease and phosphatase inhibitors. Lysates were incubated on ice for 30 min, vortexed every 10 min, and cleared by centrifugation at 13,000×g for 10 min at 4° C. Protein concentrations were measured using the Quant-iT™ Protein Assay kit (Invitrogen) and a Qubit fluorometer according to the manufacturer's instructions. Equal amounts of proteins were loaded onto electrophoresis gels.
(§2) Analysis of ERK1/2 activation was performed using specific phospho-ERK1/2 antibodies. Cell extracts were loaded on a 10% SDS-polyacrylamide gel and transferred to polyvinylidene difluoride membranes (Bio-Rad, Hercules, Calif.). Membranes were blocked overnight at 4° C. in blocking buffer (Li-Cor Biosciences, Lincoln, Nebr.). After several washes, membranes were probed with ERK1/2, phospho-ERK1/2 or β-Actin specific antibodies diluted in blocking buffer (Li-Cor) for 1 h at room temperature. After washes, membranes were incubated with the appropriate horseradish peroxidase-conjugated secondary antibody for 1 h at room temperature, and blots were then developed using a chemiluminescent detection. Analysis of MEK1/2 activation was performed as described above except primary antibody incubation was overnight at 4° C.

[4] = tested on: intracellular cAMP in THP-1 cells (H2 receptor signaling); experiment: Intracellular cAMP in TLR2-stimulated THP-1 cells; assay type: cell-based, human; conditions: THP-1 cells stimulated with TLR2 agonist
Method: The H2 receptor is a G protein linked receptor that can activate adenylate cyclase and increase intracellular cAMP. TNF can be inhibited at the level of transcription by cAMP and cAMP analogs. THP-1 cells were stimulated with a TLR2 agonist in the presence of a medium control, 6475 supernatant or histamine with or without an H2 receptor antagonist and intracellular levels of cAMP were measured. […] A synthetic analog of cAMP, dibutyryl cAMP (dcAMP), was added to TLR2-stimulated THP-1 cells and the effect on TNF production was monitored.

[5] = tested on: LPS-stimulated human monocytes and macrophages; conditions: cited from earlier work
[6] = tested on: TNFR1; conditions: injection into human skin engrafted on immunodeficient mice; cited from earlier work
[7] = tested on: peripheral blood mononuclear cells; conditions: cited from earlier work
[8] = tested on: TNFR1; conditions: cultured human endothelial cells; cited from earlier work
[9] = tested on: MEK1/2; experiment: MEK1/2 activation by Western blot; assay type: cell-based, human; conditions: activated THP-1 cells, compared to media control
Method: as §1, §2

[10] = biological target: T1, H2 receptor (Mus musculus, UniProt P97292); conditions: endotoxin shock (LPS challenge) and hepatitis (LPS plus galactosamine challenge); cited from earlier work
T1 construct: host or cells: living mice (endogenous receptor)

[11] = tested on: patients with IBS; conditions: cited from earlier work

T1 sequence (P97292 whole entry): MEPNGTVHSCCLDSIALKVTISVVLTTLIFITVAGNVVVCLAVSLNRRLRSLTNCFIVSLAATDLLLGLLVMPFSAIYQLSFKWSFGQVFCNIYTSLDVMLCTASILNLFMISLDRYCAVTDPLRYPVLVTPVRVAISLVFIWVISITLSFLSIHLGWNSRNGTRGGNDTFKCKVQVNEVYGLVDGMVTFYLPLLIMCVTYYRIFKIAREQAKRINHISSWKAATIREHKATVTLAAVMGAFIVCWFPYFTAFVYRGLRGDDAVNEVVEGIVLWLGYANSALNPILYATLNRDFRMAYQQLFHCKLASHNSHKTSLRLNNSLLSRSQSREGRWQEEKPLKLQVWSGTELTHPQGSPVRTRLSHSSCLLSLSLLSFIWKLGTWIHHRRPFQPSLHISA

Structure (SMILES): Cl.Cl.O=S(=O)(NCCNCC=Cc1ccc(Br)cc1)c1cccc2cnccc12 [H89, N-[2-(p-bromocinnamylamino)ethyl]-5-isoquinolinesulfonamide dihydrochloride]
- block of TNF inhibition by PKA inhibitor ([1]; H89 10^-5 M in presence of 6475 supernatant, fraction B3, histamine or dcAMP): partially blocked TNF inhibition

Structure (SMILES): CCCC(=O)Nc1ncnc2c1ncn2[C@@H]1O[C@@H]2COP(=O)(O)O[C@H]2[C@H]1OC(=O)CCC [dcAMP, dibutyryl cAMP]
- TNF production ([1]; dcAMP 10^-5-10^-3 M added to TLR2-stimulated THP-1 cells): sufficient to inhibit TNF production

Structure (SMILES): NCCc1c[nH]cn1 [histamine]
- protection in LPS-induced liver injury [2]: protective
- TNF production (TNF inhibition) [1]: concentration dependent; also recorded: significantly inhibited TNF production
- TNF production (TNF inhibition) ([1]; listed as Histamine): significantly inhibit TNF production
- phosphorylation (activation) of ERK1/2 [3]: blocks phosphorylation; also recorded: suppressed activation of ERK1/2
- intracellular cAMP [4]: increase in cAMP; also recorded: increased intracellular cAMP
- production of pro-inflammatory cytokines IL-1, IL-12 and TNF ([5]; LPS-stimulated human monocytes and macrophages): can inhibit production
- production of anti-inflammatory cytokine IL-10 ([5]; via the H2 receptor): can stimulate production
- TNFR1 shedding and TNF-mediated induction of endothelial adhesion molecules [6]: caused shedding of TNFR1 and diminished TNF-mediated induction of endothelial adhesion molecules
- LPS-induced synthesis of TNF-α [7]: suppressed
- TNFR1 surface level, shedding and mobilization [8]: transient loss of surface TNFR1, increased TNFR1 shedding, and mobilization of TNFR1 molecules from the Golgi
- phosphorylation (activation) of MEK1/2 [9]: blocks phosphorylation; also recorded: suppressed activation of MEK1/2

Structure (SMILES): CN(C)CCCSC(=N)N [dimaprit]
- plasma TNF levels [10]: reduced plasma TNF levels

Structure (SMILES): CN1CCC(=C2c3ccccc3CC(=O)c3sccc32)CC1 [ketotifen]
- IBS symptoms ([11]; patients with IBS): decreased IBS symptoms
- pain threshold ([11]; patients with IBS): increased pain threshold
- number or activity of mast cells (histamine and tryptase release) ([11]; rectal biopsy tissue): no change

Structure (SMILES): N#CC(=C(/N)Sc1ccccc1N)/C(C#N)=C(\N)Sc1ccccc1N [U0126]
- TNF production ([1]; U0126 treatment for 30 min prior to TLR2 agonist stimulation): sufficient to prevent TNF production
- phosphorylation (activation) of ERK1/2 [3]: blocks phosphorylation; also recorded: suppressed activation of ERK1/2
- phosphorylation (activation) of MEK1/2 [9]: blocks phosphorylation; also recorded: suppressed activation of MEK1/2

Structure (SMILES): CN/C(=N/CCSCc1nc[nH]c1C)NC#N [cimetidine]
- block of TNF-inhibition by histamine [1]: could block TNF-inhibition by histamine in a concentration dependent manner

Structure (SMILES): COc1ccc2c(c1)c(CC(=O)O)c(C)n2C(=O)c1ccc(Cl)cc1 [indomethacin]
- block of TNF-inhibition by histamine [1]: no effect
